Test results taken from PubChem BioAssay AID278 (DTP/NCI, 2004).
Several values for one entry are separate records, joined by “and”; a condition that tells them apart may be missing. Identical values can stand only once. Inconclusive results are not listed.

Tested on: nude mice, A549 intrarenal xenograft, tumor weight change
Assay: NCI In Vivo Anticancer Drug Screen. Data for tumor model A549 Human Adenocarcinoma of Lung with characteristics of Type II Alveolar Epithelial cells (intrarenal inoculation) in NU/NU BALB/C (nude) mice
Details: endpoint: mean tumor weight change, schedule: Q04DX003 (ip), higher = larger tumour
How it was run: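 Mice bearing transplantable tumors were treated and survival or tumor size recorded. Values are given as treated-group measurement divided by vehicle-control measurement (T/C).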

[1] = dose: 150.0 mg/kg/injection, vehicle: saline with Tween-80
[2] = dose: 300.0 mg/kg/injection, vehicle: saline with Tween-80
[3] = dose: 25.0 mg/kg/injection, vehicle: saline
[4] = dose: 50.0 mg/kg/injection, vehicle: saline

Which T/C (dose: 62.5 mg/kg/injection, vehicle: saline + alcohol) does the source give for `c1cc2c(c(CC3CO3)c1CC1CO1)OCCOCCOCCOCCO2` (stereo not drawn) here?
The T/C was 74 % of control.

What about the T/C (dose: 125.0 mg/kg/injection, vehicle: saline + alcohol) of the same molecule?
The T/C was 98 % of control.

What about the T/C (dose: 250.0 mg/kg/injection, vehicle: saline + alcohol) of the same molecule?
Its T/C is 64 % of control.

What about the T/C (dose: 375.0 mg/kg/injection, vehicle: saline + alcohol) of the same molecule?
The T/C was 75 % of control.

`c1ccc(OCC2CO2)c(OCC2CO2)c1` (stereo not drawn) was tested. Which T/C (dose: 75.0 mg/kg/injection, vehicle: saline with Tween-80) did it give?
The T/C was 89 % of control.

What about the T/C [1] of the same molecule?
The T/C was -20 % of control.

And the T/C [2]?
The T/C was 9 % of control.

`CC1=C[P+](c2ccccc2)(c2ccccc2)C=C(c2ccccc2)O1` was tested. Which T/C (dose: 1.0 mg/kg/injection, vehicle: suspension in saline) did it give?
The T/C was 94 % of control.

What about the T/C (dose: 2.0 mg/kg/injection, vehicle: suspension in saline) of the same molecule?
Its T/C is 89 % of control.

What about the T/C (dose: 8.0 mg/kg/injection, vehicle: suspension in saline) of the same molecule?
Its T/C is 80 % of control.

Which T/C [3] does the source give for `CN=NN(C)C(=O)NC` here?
The T/C was 37 % of control.

And the T/C (dose: 43.2 mg/kg/injection, vehicle: saline)?
Its T/C is 27 % of control.

What about the T/C [4] of the same molecule?
Its T/C is 72 % of control.

And the T/C (dose: 72.0 mg/kg/injection, vehicle: saline)?
Its T/C is 28 % of control.

What about the T/C (dose: 100.0 mg/kg/injection, vehicle: saline) of the same molecule?
The T/C was 8 % of control.

And the T/C (dose: 120.0 mg/kg/injection, vehicle: saline)?
The T/C was 8 % of control.

And the T/C (dose: 200.0 mg/kg/injection, vehicle: saline)?
Its T/C is -34 % of control and -27 % of control.

Which T/C (dose: 1.25 mg/kg/injection, vehicle: saline) does the source give for `[CH3][Sn]([CH3])([Cl])[c]1cc[c]([Sn]([CH3])([CH3])[Cl])cc1` here?
Its T/C is 84 % of control.

What about the T/C (dose: 2.5 mg/kg/injection, vehicle: saline) of the same molecule?
The T/C was 160 % of control.

What about the T/C (dose: 5.0 mg/kg/injection, vehicle: saline) of the same molecule?
The T/C was 70 % of control.

With `COc1cccc2c1C(CO)N1C(C#N)C3CC(C(=O)O)C(C1C2)N3C` (stereo not drawn) as the molecule, how does the T/C (dose: 3.75 mg/kg/injection, vehicle: saline) read?
Its T/C is 24 % of control.

And the T/C (dose: 6.25 mg/kg/injection, vehicle: saline)?
Its T/C is 32 % of control.

What about the T/C (dose: 7.5 mg/kg/injection, vehicle: saline with Tween-80) of the same molecule?
The T/C was 64 % of control.

What about the T/C (dose: 7.5 mg/kg/injection, vehicle: saline) of the same molecule?
Its T/C is 73 % of control.

And the T/C (dose: 12.5 mg/kg/injection, vehicle: saline)?
The T/C was 76 % of control.

What about the T/C (dose: 15.0 mg/kg/injection, vehicle: saline with Tween-80) of the same molecule?
Its T/C is 57 % of control.

And the T/C (dose: 15.0 mg/kg/injection, vehicle: saline)?
Its T/C is 59 % of control.

And the T/C [3]?
Its T/C is 33 % of control.

And the T/C (dose: 30.0 mg/kg/injection, vehicle: saline with Tween-80)?
Its T/C is 59 % of control.

And the T/C (dose: 30.0 mg/kg/injection, vehicle: saline)?
Its T/C is 39 % of control.

And the T/C [4]?
The T/C was 52 % of control.

And the T/C (dose: 60.0 mg/kg/injection, vehicle: saline)?
Its T/C is 17 % of control.

Which T/C (dose: 75.0 mg/kg/injection, vehicle: saline) does the source give for `CC(=O)NCCSSCCCCS(=O)O` here?
The T/C was 111 % of control.

And the T/C (dose: 150.0 mg/kg/injection, vehicle: saline)?
The T/C was 60 % of control.

And the T/C (dose: 300.0 mg/kg/injection, vehicle: saline)?
The T/C was 39 % of control.

And the T/C (dose: 600.0 mg/kg/injection, vehicle: saline)?
The T/C was 70 % of control.

What does the source list for `CN(C)CCNc1ccc(CO)c2sc3ccc(O)cc3c(=O)c12`?
T/C (dose: 54.0 mg/kg/injection, vehicle: saline with Tween-80): 5 % of control; T/C (dose: 90.0 mg/kg/injection, vehicle: saline with Tween-80): 3 % of control; T/C [1]: 2 % of control and 12 % of control; T/C (dose: 250.0 mg/kg/injection, vehicle: saline with Tween-80): -36 % of control

Which T/C (dose: 37.5 mg/kg/injection, vehicle: saline with Tween-80) does the source give for `Cc1c2ccccc2c(C)c2c1cc(C(=O)O)c1ccccc12` here?
Its T/C is 150 % of control.

And the T/C [1]?
The T/C was 113 % of control.

And the T/C [2]?
Its T/C is 85 % of control.
